In US20170224679A1, “Use of CXCR2 Antagonists For The Prevention and/or Treatment of Chemotherapy Induced Peripheral Neuropathy (CIPN)” (GlaxoSmithKline Intellectual Property Development Limited, priority 2014, published 2017):

Columns and labels:
CXCR2 receptor = biological target: T1, CXCR2 receptor (Homo sapiens, UniProt P25025); experiment: Calcium mobilization assay (FLIPR, IL-8 induced); type: cell-based; parameters: expressed in transfected cells; host or cells: CHO-K1 cells
T1 sequence (P25025 1-360): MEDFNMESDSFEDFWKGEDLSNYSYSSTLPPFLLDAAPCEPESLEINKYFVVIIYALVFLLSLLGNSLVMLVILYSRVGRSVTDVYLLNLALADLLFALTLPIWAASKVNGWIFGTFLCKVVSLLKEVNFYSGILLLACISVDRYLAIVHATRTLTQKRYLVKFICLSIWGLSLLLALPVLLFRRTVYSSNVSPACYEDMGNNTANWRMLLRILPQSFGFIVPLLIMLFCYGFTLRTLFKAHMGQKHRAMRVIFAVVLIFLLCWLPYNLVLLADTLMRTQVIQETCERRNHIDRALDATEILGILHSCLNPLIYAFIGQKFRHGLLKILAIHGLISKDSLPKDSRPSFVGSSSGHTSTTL
Protocol: CHO-K1 cells, stably expressing CXCR2 and Gαl6, were grown to 80% confluency in DMEM/F12 (HAM's) 1:1, w/10% FCS (heat inactivated), w/2 mM L-glutamine, w/0.4 mg/ml G418 while maintained at 37° C. in a 5% CO2 incubator. Twenty four hours prior to conducting the assay, the cells were harvested and plated (40,000 cells per well) in a 96 well, black wall, clear bottom plate (Packard View) and returned to the CO2 incubator. On the day of the assay, compounds were serially diluted in 100% DMSO to 300× the desired assay concentration. Growth media was aspirated from the cells and replaced with 100 μL of load media (EMEM with Earl's salts w/LGlutamine, 0.1% BSA, (Bovunlinar Cohen Fraction V from Seriologicals Corp.), 4 uM Fluo-4-acetoxymethyl ester fluorescent indicator dye (Fluo-4 AM, from Molecular Probes) and 2.5 mM probenecid) and incubated for 1 hour at 37° C. in a CO2 incubator. Load media was aspirated and replaced with 100 μL of EMEM with Earl's salts w/L-Glutamine, 0.1% gelatin and 2.5 mM probenecid and incubated for an additional 10 min. Serially diluted compound (3 μL) in DMSO at 300× was transferred to a 96 well plate containing 297 micro liters of KRH (120 mM NaCl, 4.6 mM KCl, 1.03 mM KH2PO4, 25 mM NaHCO3, 1.0 mM CaCl2, 1.1 mM MgCl2, 11 mM glucose, 20 mM HEPES (pH 7.4)) w/2.5 mM probenecid and 0.1% gelatin (compound now at 3×). […]

HCT116 cell line = experiment: Colorectal cancer cell line proliferation assay, HCT116; type: cell-based; conditions: HCT116, compound alone 8.5 μM, non-significant
Protocol: Cell proliferation assay: Cells were seeded in 96-well plates (Costar) at different cell densities: HCT116, 500 cells per well; Caco-2, 1000 cells per well. Total volume of the medium was 90 μl per well. Cells were incubated for 24 hours at 37° C. and 5% CO2 incubator. […] The final concentration of the Compound of Formula (A) was 8.5 μM. […] The cell proliferation rate was measured by adding 100 μl of CellTiter-Glo™ (Promega) according to the manufacturer's instructions. After 10 minutes of incubation, the cell lysates were transferred into OptiPlate-384 well, the luminescence was recorded by BioTek Synergy™ 4 Hybrid Microplate Reader with Gen5 software. All data points were generated in five replicates. Three independent experiments were performed. […] All data were presented as the mean±standard error of the mean determined from three independent experiments.

Sprague-Dawley rats = experiment: CXCR2 antagonist effect on repeat dosing oxaliplatin induced sensory injury rat; conditions: oxaliplatin-treated rats, 20 mg/kg p.o. b.i.d. 4 weeks
Protocol: Male Sprague-Dawley rats (109-167 g, ˜5weeks old) were housed in cages in groups of three in a controlled environment of constant temperature and moisture (temperature: 25±3° C., light: dark cycle of 12:12 hours) with food (25 g/rat/day of LabDiet 5053) and water available ad libitum.
MC (Sigma Cat #423238) was made up in water at 1% (w/v) (1 g per 100 mL water) and left on a stirrer until completely dissolved. The formulation was prepared every 6-8 days in 400-700 mL each time and stored at 4° C. protected from light. The dosing volume used was 10 mL/kg to give a 20 mg/kg p.o. dose. Vehicle treated animals were dosed b.i.d. with 1% MC w/v at 10 mL/kg p.o.
A fresh solution was prepared before every injection. Control vehicle animals were treated with 5% w/v Gluclose at 5ml/kg. Glucose (Sigma Aldrich Cat #G7021) was made up in milli-Q water at 5% (w/v) (5 g per 100 mL water) and left on a stirrer until completely dissolved.
Body weight tracking: The bodyweights of rats were measured twice a week for 4 weeks on Days 1, 3, 9, 11, 16, 18, 23, and 25. […]
Rats were anesthetized with chloral hydrate (350 mg/kg, 3.5 mL/kg, i.p.). […] The right sciatic nerve was carefully identified and conduction velocity was measured by recording action potentials from an electrode placed between the second and third digits as described by Jamieson et al., Br. J. Cancer, 88(12):1942-7 (2003), and electrically stimulating the nerve (5V, 0.5 s, single-wave pulses) via a platinum wire electrode at the sciatic notch and ankle. The length between the sciatic notch and ankle was measured.
The nerve conduction velocity was calculated as the length between sciatic notch and ankle divided by the difference between the time latencies at the stimulation sites [latency (sciatic notch)−latency (ankle)].
A 1 cm segment of the left sciatic nerve (distal end) was located and carefully dissected out. […] The ratio of inner area over entire area of nerve fibers of sciatic nerves was then calculated as an indicator of thickness of myelin sheath of nerves.

`O=C(Nc1ccc(Cl)c(S(=O)(=O)N2CCNCC2)c1O)Nc1cccc(F)c1Cl` [Compound of Formula (A), 1-(4-chloro-2-hydroxy-3-(piperazin-1-ylsulfonyl)phenyl)-3-(2-chloro-3-fluorophenyl)urea] was tested, and the Kb (CXCR2 receptor) was 3.98 nM, the “decrease of basal proliferation” value (HCT116 cell line) was 8.9±0.7% and the “sciatic nerve conduction velocity between sciatic notch and ankle” value (Sprague-Dawley rats; Day 29-31, mean±SEM) was 40.83±1.45 m/s. For the same molecule, the “ratio of inner area over entire area of the nerve fibers (myelin sheath thickness)” value (Sprague-Dawley rats; left sciatic nerve, mean±SEM) was 0.17±0.01.
